Laboratory results from ChEMBL document CHEMBL1649511, “Reduction of amphotericin B-induced renal tubular apoptosis by N-acetylcysteine” (2009).

Legend:
Type in all cases: functional
Design in all cases: scale not given: the % may be the effect or the level left
Details in all cases: route intraperitoneal
Rattus norvegicus [1] = assay: Inhibition of amphotericin B-induced renal tubular apoptosis in Sprague-Dawley rat assessed as apoptotic index at 30 mg/kg, ip BID measured post last dose
Rattus norvegicus [2] = assay: Inhibition of amphotericin B-induced renal tubular apoptosis in Sprague-Dawley rat assessed as apoptotic index at 120 mg/kg, ip BID measured post last dose
Rattus norvegicus [3] = assay: Inhibition of amphotericin B-induced renal tubular apoptosis in Sprague-Dawley rat assessed as apoptotic index at 60 mg/kg, ip BID measured post last dose

Which results are given for `CC(=O)N[C@@H](CS)C(=O)O` [ACETYLCYSTEINE]?
Activity (Rattus norvegicus [1]): 27.4%; Activity (Rattus norvegicus [2]): 23.5%; Activity (Rattus norvegicus [3]): 23.6%
